Laboratory results taken from patent publication US20240376085A1 (Janssen Pharmaceutica NV, priority 2021, published 2024).

Tests used:
IL-17A : IL-17RA binding = target: T1, IL-17A : IL-17RA binding (Homo sapiens, UniProt Q16552, K93Q); assay: IL-17A(FLAG-tagged):IL-17RA(His-tagged) binding disruption Eu-HTRF assay, Protocol 1; conditions: FLAG-IL-17A 2.5 nM at 2x final concentration; average if tested more than once
T1 construct: Name: IL-17A-Flag
Method in brief: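 IC50 came from a one-site competition fit of the acceptor/donor (665/620 nm) HTRF ratio. His-tagged IL-17RA, Eu-anti-FLAG and D2-anti-His were added after a 1 h rt compound preincubation with FLAG-tagged IL-17A dimer in PBS/0.01% Triton X-100, followed by 2 h at rt before reading.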

[1] = test system: IL-17A-induced G-CSF production in human normal keratinocyte (NHK); assay: NHK assay: IL-17A-induced G-CSF production in normal human keratinocytes; type: cell-based; conditions: Homo sapiens, Keratinocyte, 24 h, IL-17A 5 ng/mL, average if tested more than once
Method in brief: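 IC50 derives from G-CSF in supernatants, quantified by HTRF from a standard curve, with CellTiter-Glo viability compared to DMSO control. Before a 24 h, 37°C culture of normal human keratinocytes at 3000–4000 cells/well, compound dilutions were preincubated 1 h at rt with human IL-17A (5 ng/mL final), with 0.2% DMSO and 5% FBS.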

T1 sequence (Q16552 with tags, fused parts or gaps K93Q): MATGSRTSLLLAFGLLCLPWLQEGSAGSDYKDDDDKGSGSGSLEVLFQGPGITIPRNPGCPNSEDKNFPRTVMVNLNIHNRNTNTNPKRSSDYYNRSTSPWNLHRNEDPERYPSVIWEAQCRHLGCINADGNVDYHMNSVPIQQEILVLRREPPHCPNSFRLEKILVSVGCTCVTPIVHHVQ

## Cc1nonc1C(=O)N[C@H](c1nc2ccc([C@H](NC(=O)CC3CC(F)(F)C3)C3CC3)cc2[nH]1)C1CCC(F)(F)CO1 (single isomer, unassigned) [Example 260, N—((R)-(6-((R)-Cyclopropyl(2-(3,3-difluorocyclobutyl)acetamido)methyl)-1H-benzo[d]imidazol-2-yl)((S*)-5,5-difluorotetrahydro-2H-pyran-2-yl)methyl)-4-methyl-1,2,5-oxadiazole-3-carboxamide]
IL-17A : IL-17RA binding
  IC50: > 100 nM
[1]
  IC50: > 100 nM

## C[C@@H](NC(=O)CCC(F)(F)F)c1ccc2[nH]c([C@@H](NC(=O)c3cnnn3CCOC(F)F)C3CCC(F)(F)CC3)nc2c1 [Example 34, N—[(S)-(4,4-Difluorocyclohexyl)-[6-[(1R)-1-(4,4,4-trifluorobutanoylamino)ethyl]-1H-benzimidazol-2-yl]methyl]-3-[2-(difluoromethoxy)ethyl]triazole-4-carboxamide]
IL-17A : IL-17RA binding
  IC50: > 100 nM
[1]
  IC50: 50 to 100 nM

## CC(NC(=O)CCC(F)(F)F)c1ccc2nc([C@H](CC(C)(C)C(F)(F)F)NC(=O)c3ccnn3C(C)C)[nH]c2c1 (single isomer, unassigned) [Example 231, 1-Isopropyl-N—((S)-4,4,4-trifluoro-3,3-dimethyl-1-(6-((S*)-1-(4,4,4-trifluorobutanamido)ethyl)-1H-benzo[d]imidazol-2-yl)butyl)-1H-pyrazole-5-carboxamide]
IL-17A : IL-17RA binding
  IC50: > 100 nM
[1]
  IC50: > 100 nM

## C[C@@H](NC(=O)CC1CC(F)(F)C1)c1ccc2[nH]c([C@@H](NC(=O)c3ccnn3C)C3CCC(F)(F)CC3)nc2c1 [Example 119, N—((S)-(5-((R)-1-(2-(3,3-Difluorocyclobutyl)acetamido)ethyl)-1H-benzo[d]imidazol-2-yl)(4,4-difluorocyclohexyl)methyl)-1-methyl-1H-pyrazole-5-carboxamide]
IL-17A : IL-17RA binding
  IC50: > 100 nM
[1]
  IC50: < 50 nM

## CC(C)n1nccc1C(=O)N[C@H](c1nc2ccc([C@H](NC(=O)CC3CC(F)(F)C3)C3CC3)cc2[nH]1)C1CCC(F)(F)CO1 (single isomer, unassigned) [Example 261, N—((R)-(6-((R)-Cyclopropyl(2-(3,3-difluorocyclobutyl)acetamido)methyl)-1H-benzo[d]imidazol-2-yl)((S*)-5,5-difluorotetrahydro-2H-pyran-2-yl)methyl)-1-isopropyl-1H-pyrazole-5-carboxamide]
IL-17A : IL-17RA binding
  IC50: > 100 nM
[1]
  IC50: 50 to 100 nM

## CC(C)(OC[C@H](NC(=O)c1nonc1OCC(F)(F)F)c1nc2cc([C@H](NC(=O)CC3CC(F)(F)C3)C3CC3)ccc2[nH]1)C(F)(F)F [Example 267, N—((R)-1-(5-((R)-Cyclopropyl(2-(3,3-difluorocyclobutyl)acetamido)methyl)-1H-benzo[d]imidazol-2-yl)-2-((1,1,1-trifluoro-2-methylpropan-2-yl)oxy)ethyl)-4-(2,2,2-trifluoroethoxy)-1,2,5-oxadiazole-3-carboxamide]
IL-17A : IL-17RA binding
  IC50: < 50 nM
[1]
  IC50: < 50 nM

## Cc1n[nH]cc1C(=O)N[C@H](c1nc2cc([C@@H](C)NC(=O)CCC(F)(F)F)ccc2[nH]1)C1CCC(F)(F)CC1 [Example 25, N—[(S)-(4,4-Difluorocyclohexyl)-[6-[(1R)-1-(4,4,4-trifluorobutanoylamino)ethyl]-1H-benzimidazol-2-yl]methyl]-3-methyl-1H-pyrazole-4-carboxamide]
IL-17A : IL-17RA binding
  IC50: > 100 nM
[1]
  IC50: > 100 nM

## C[C@@H](NC(=O)CCC(F)(F)F)c1ccc2[nH]c([C@@H](NC(=O)c3cncn3CCC(F)(F)F)C3CCC(F)(F)CC3)nc2c1 [Example 216, N—((S)-(4,4-Difluorocyclohexyl)(5-((R)-1-(4,4,4-trifluorobutanamido)ethyl)-1H-benzo[d]imidazol-2-yl)methyl)-1-(3,3,3-trifluoropropyl)-1H-imidazole-5-carboxamide]
IL-17A : IL-17RA binding
  IC50: > 100 nM
[1]
  IC50: > 100 nM

## C[C@@H](NC(=O)CCC(F)(F)F)c1ccc2nc([C@@H](NC(=O)c3cnn(CCC(F)F)n3)C3CCC(F)(F)CC3)[nH]c2c1 [Example 73, N—((S)-(4,4-Difluorocyclohexyl)(6-((R)-1-(4,4,4-trifluorobutanamido)ethyl)-1H-benzo[d]imidazol-2-yl)methyl)-2-(3,3-difluoropropyl)-2H-1,2,3-triazole-4-carboxamide]
IL-17A : IL-17RA binding
  IC50: > 100 nM
[1]
  IC50: > 100 nM

## C[C@@H](NC(=O)CCC(F)(F)F)c1ccc2nc([C@@H](NC(=O)c3cnn(CC4CCC4)n3)C3CCC(F)(F)CC3)[nH]c2c1 [Example 62, 2-(Cyclobutylmethyl)-N—((S)-(4,4-difluorocyclohexyl)(6-((R)-1-(4,4,4-trifluorobutanamido)ethyl)-1H-benzo[d]imidazol-2-yl)methyl)-2H-1,2,3-triazole-4-carboxamide]
IL-17A : IL-17RA binding
  IC50: > 100 nM
[1]
  IC50: > 100 nM

## C[C@@H](NC(=O)CCC(F)(F)F)c1ccc2[nH]c([C@@H](NC(=O)c3ncn(CC4CC4)n3)C3CCC(F)(F)CC3)nc2c1 [Example 29, 1-(Cyclopropylmethyl)-N—[(S)-(4,4-difluorocyclohexyl)-[6-[(1R)-1-(4,4,4-trifluorobutanoylamino)ethyl]-1H-benzimidazol-2-yl]methyl]-1,2,4-triazole-3-carboxamide]
IL-17A : IL-17RA binding
  IC50: > 100 nM
[1]
  IC50: > 100 nM

## C[C@@H](NC(=O)CCC(F)(F)F)c1ccc2[nH]c([C@@H](NC(=O)c3cc(CCC(F)(F)F)no3)C3CCC(F)(F)CC3)nc2c1 [Example 215, N—((S)-(4,4-Difluorocyclohexyl)(5-((R)-1-(4,4,4-trifluorobutanamido)ethyl)-1H-benzo[d]imidazol-2-yl)methyl)-3-(3,3,3-trifluoropropyl)isoxazole-5-carboxamide]
IL-17A : IL-17RA binding
  IC50: > 100 nM
[1]
  IC50: > 100 nM

## C[C@@H](NC(=O)CCC(F)(F)F)c1ccc2nc([C@@H](NC(=O)c3cccc(C#N)c3)C3CCC(F)(F)CC3)[nH]c2c1 [Example 131, 3-Cyano-N—((S)-(4,4-difluorocyclohexyl)(6-((R)-1-(4,4,4-trifluorobutanamido)ethyl)-1H-benzo[d]imidazol-2-yl)methyl)benzamide]
IL-17A : IL-17RA binding
  IC50: > 100 nM
[1]
  IC50: > 100 nM

## Cc1nocc1C(=O)N[C@@H](COC(C)(C)C(F)(F)F)c1nc2ccc([C@H](NC(=O)CC3CC(F)(F)C3)C3CC3)cc2[nH]1 [Example 77, N—((R)-1-(6-((R)-Cyclopropyl(2-(3,3-difluorocyclobutyl)acetamido)methyl)-1H-benzo[d]imidazol-2-yl)-2-((1,1,1-trifluoro-2-methylpropan-2-yl)oxy)ethyl)-3-methylisoxazole-4-carboxamide]
IL-17A : IL-17RA binding
  IC50: 50 to 100 nM
[1]
  IC50: 50 to 100 nM

## C[C@@H](NC(=O)CCC(F)(F)F)c1ccc2[nH]c(C(CC(C)(C)C(F)(F)F)NC(=O)c3cnn(CCC(F)(F)F)n3)nc2c1 (single isomer, unassigned) [Example 219, N—((S*)-4,4,4-Trifluoro-3,3-dimethyl-1-(5-((R)-1-(4,4,4-trifluorobutanamido)ethyl)-1H-benzo[d]imidazol-2-yl)butyl)-2-(3,3,3-trifluoropropyl)-2H-1,2,3-triazole-4-carboxamide]
IL-17A : IL-17RA binding
  IC50: > 100 nM
[1]
  IC50: > 100 nM

## C[C@@H](NC(=O)CC(C(F)(F)F)C(F)(F)F)c1ccc2[nH]c([C@@H](NC(=O)c3ccnn3C)C3CCC(F)(F)CC3)nc2c1 [Example 116, N—((S)-(4,4-Difluorocyclohexyl)(5-((R)-1-(4,4,4-trifluoro-3-(trifluoromethyl)butanamido)ethyl)-1H-benzo[d]imidazol-2-yl)methyl)-1-methyl-1H-pyrazole-5-carboxamide]
IL-17A : IL-17RA binding
  IC50: 50 to 100 nM
[1]
  IC50: < 50 nM

## CC(C)c1nnsc1C(=O)N[C@H](c1nc2cc([C@@H](C)NC(=O)CCC(F)(F)F)ccc2[nH]1)C1CCC(F)(F)CC1 [Example 188, N—((S)-(4,4-Difluorocyclohexyl)(5-((R)-1-(4,4,4-trifluorobutanamido)ethyl)-1H-benzo[d]imidazol-2-yl)methyl)-4-isopropyl-1,2,3-thiadiazole-5-carboxamide]
IL-17A : IL-17RA binding
  IC50: > 100 nM
[1]
  IC50: > 100 nM

## C[C@@H](NC(=O)CCC(F)(F)F)c1ccc2[nH]c([C@@H](NC(=O)c3cn(CC4CCC4)nc3C#N)C3CCC(F)(F)CC3)nc2c1 [Example 88, 3-Cyano-1-(cyclobutylmethyl)-N—((S)-(4,4-difluorocyclohexyl)(5-((R)-1-(4,4,4-trifluorobutanamido)ethyl)-1H-benzo[d]imidazol-2-yl)methyl)-1H-pyrazole-4-carboxamide]
IL-17A : IL-17RA binding
  IC50: > 100 nM
[1]
  IC50: > 100 nM

## CC(C)n1nccc1C(=O)N[C@@H](CC1CC2(C1)CC(F)(F)C2)c1nc2ccc([C@H](NC(=O)CC3CC(F)(F)C3)C3CC3)cc2[nH]1 (stereo partly drawn) [Example 148, N—((S)-1-(6-((R)-Cyclopropyl(2-(3,3-difluorocyclobutyl)acetamido)methyl)-1H-benzo[d]imidazol-2-yl)-2-(6,6-difluorospiro[3.3]heptan-2-yl)ethyl)-1-isopropyl-1H-pyrazole-5-carboxamide]
IL-17A : IL-17RA binding
  IC50: > 100 nM
[1]
  IC50: > 100 nM

## C[C@@H](NC(=O)CCC(F)(F)F)c1ccc2[nH]c([C@@H](NC(=O)c3cnn(CCC(F)(F)F)n3)[C@@H]3CCCC(F)(F)C3)nc2c1 [Example 265]
IL-17A : IL-17RA binding
  IC50: > 100 nM
[1]
  IC50: > 100 nM

## C[C@@H](NC(=O)CCC(F)(F)F)c1ccc2[nH]c([C@@H](NC(=O)c3cnnn3CC3CC3)C3CCC(F)(F)CC3)nc2c1 [Example 9, 3-(Cyclopropylmethyl)-N—[(S)-(4,4-difluorocyclohexyl)-[6-[(1R)-1-(4,4,4-trifluorobutanoylamino)ethyl]-1H-benzimidazol-2-yl]methyl]triazole-4-carboxamide]
IL-17A : IL-17RA binding
  IC50: > 100 nM
[1]
  IC50: > 100 nM
